The text below walks through data of patent US20090130188A9, “Acrylic pressure sensitive adhesives” (National Starch and Chemical Investment Holding Company, priority 2005, published 2009).

Read-outs that look alike come from different tables or passages of the source.

The conditions of data set [1]: for state of ketoprofen in dried adhesive film: dried 30 minutes at 60° C.
Data set [2] can be described thus: Ketoprofen added to adhesive solutions, mixed overnight, dissolved vs dispersed. Conditions: 15% on a solids basis. Type of data set: physicochemical.
The nature of data set [3]: Cholesteryl dodecanoate added to adhesive solutions, mixed overnight at room temperature. Conditions: 1% on a solids basis. The data set is classed as physicochemical. On the procedure:
Cholesteryl dodecanoate, a model for a highly lipophilic drug, was added at 1% on a solids basis to the solutions of Example 7 and 8. These were then mixed overnight at room temperature.

Where [4] appears, read: film from conventional adhesive solution (Comparative Example 2).

Regarding `CC(C(=O)O)c1cccc(C(=O)c2ccccc2)c1` (stereo not shown) [ketoprofen], in data set [1] (setting [4]), the “enthalpy of fusion by DSC” value is recorded as “zero”. For the same compound, the “state of ketoprofen in dried adhesive film” value is given as “no visible crystals” in data set [1] (setting [4]) and “undissolved crystals” in data set [1] (film from cyclohexane adhesive solution (Example 1)). Besides, the “dissolution of ketoprofen in adhesive solution” value was “most of the ketoprofen remained as a dispersed solid” in data set [2] (adhesive solution of Example 1 (cyclohexane, δ 16.8), tube B) and “completely dissolved” in data set [2] (adhesive solution of Example 2 (δ 19.0), tube A).

As to `CCCCCCCCCCCC(=O)O[C@H]1CC[C@@]2(C)C(=CC[C@H]3[C@@H]4CC[C@H]([C@H](C)CCCC(C)C)[C@@]4(C)CC[C@@H]32)C1` [Cholesteryl dodecanoate], the “dissolution of model active in adhesive solution” value in data set [3] (solution of Example 7 (ethanol)) is given as “large quantity of undissolved model active”; in data set [3] (solution of Example 8 (δ 19.4)), “completely soluble”.
